Measurements taken from patent US8912146B2, “Derivatives of APF and methods of use” (University of Maryland, Baltimore, priority 2008, dated 2014).
Where two headings read alike, the source gives them in different places.

What was measured:
[1] = tested on: tight junction proteins in IC/PBS cells; experiment: Immunofluorescence confocal microscopy of tight junction proteins in IC/PBS cells; format: cell-based, human; settings: IC/PBS cell explants, 9 days
Experimental: For immunofluorescence, cells were fixed using ethanol/acetone (1:1) for 15 minutes at room temperature, washed 3 times with PBS and incubated with fluorescein isothiocyanate (FITC) labeled mouse monoclonal anti-ZO-1 (5 μg/ml); or unlabeled mouse monoclonal anti-occludin (5 μg/ml) or anti-claudin 4 (3 μg/ml); or unlabeled rabbit polyclonal anti-claudin 1 (3 μg/ml), anti-claudin 8 (8 μg/ml), or anti-claudin 12 (5 μg/ml from Zymed, South San Francisco, Calif.) diluted in PBS for 2 hours at 37 C. Cells incubated with unlabeled mouse monoclonal primary antibodies were then washed 3 times with PBS and further incubated with FITC-labeled secondary goat anti-mouse IgG antibody (Zymed) diluted in PBS, while cells incubated with unlabeled rabbit polyclonal primary antibodies were washed and further incubated for 2 hours at 37 C with goat anti-rabbit IgG (Zymed) diluted in PBS. Following an additional 5 washes with PBS, the cells were examined using an LSM510 confocal laser scanning microscope (Carl Zeiss, Oberkochen, Germany). Negative controls for the method included cells incubated without primary and secondary antibodies as well as cells incubated with secondary antibody alone.

[2] = tested on: primary normal human bladder epithelial cells; experiment: 3H-thymidine incorporation (antiproliferative activity) in primary normal bladder epithelial cells; format: cell-based
Experimental: Cell Culture. Cystoscopy was performed under general anesthesia, and 4-mm^2 pieces of transitional epithelium with submucosal bladder tissue were obtained for the growth of primary bladder epithelial cells, as previously described (Keay et al., 1996; 2004). Primary normal bladder epithelial cells were propagated in DMEM-F12 (Media-Tech, Herndon Va.) with 10% heat-inactivated fetal bovine serum (FBS), 1% antibiotic/antimycotic solution, 1% L-glutamine, 0.25 units/mL insulin (all from Sigma, St. Louis, Mo.), and 5 ng/mL hEGF (R&D Systems, Minneapolis, Minn.) at 37° C. in a 5% CO2 atmosphere and characterized by binding of AE-1/AE-3 pancytokeratin antibodies (Signet, Dedham, Mass.).
^3H-Thymidine Incorporation. Cell proliferation was measured by ^3H-thymidine incorporation into explanted normal human bladder epithelial cells, plating 1.5×10^4 cells/well onto a 96 well cell culture plate (VWR 29442-054), in 150 ul/well MEM containing 10% heat inactivated FBS, 1% antibiotic/antimycotic solution, and 1% L-glutamine (all from Sigma), resulting in a doubling time of 48-72 hours, as previously described (Keay et al., 1996; 2004). Each purified lyophilized synthetic APF congener was resuspended in acetonitrile/distilled water (1:1), and applied to the cells in serum-free MEM (containing only L-glutamine and antibiotics/antimycotics); cell controls received acetonitrile/distilled water diluted in serum-free MEM alone. Cells were then incubated at 37° C. in a 5% CO2 atmosphere for 48 hours. The cell contents harvested and methanol-fixed onto glass fiber filter paper, and the amount of radioactivity incorporated determined. Significant inhibition of ^3H-thymidine incorporation was defined as a mean decrease in counts per minute of greater than 2 standard deviations from the mean of control cells for each plate. Inhibition of cell proliferation was determined from a semi-log plot of dose-response for each APF derivative; IC50 was determined as the concentration of each derivative that caused a mean 50% inhibition of thymidine incorporation as compared to the mean of untreated cell controls.
Statistical Analysis. The thymidine incorporation (APF biological activity) assay was performed in triplicate on at least two separate runs, with 1 run simultaneously in triplicate on the same plate. The significance of the difference between mean values for each congener vs. mean values for compound 1 was determined by an analysis of variance.

## CC(=O)NC1C(O[C@@H]2OC(CO)[C@H](O)C(O)C2O)[C@@H](O)C(CO)O[C@@H]1OC(C)[C@H](N)C(=O)NC(C(=O)N1CCCC1C(=O)NC(C)C(=O)N[C@@H](C)C(=O)NC(C(=O)N[C@H](C(=O)NC(C(=O)N[C@@H](C)C(=O)O)C(C)C)C(C)C)C(C)C)C(C)C (stereo in doubt) [Derivative 8, GalGalNAc-TV(D-proline)AAVVVA]
[1]
  expression of tight junction proteins by immunofluorescence confocal microscopy: increased
[2]
  antiproliferative activity compared with as-APF (1), in words: completely abolished activity
[2]; listed as D-proline APF
  antiproliferative activity compared with as-APF (1), in words: Neither D-proline APF nor D-pipecolic acid APF had any intrinsic antiproliferative activity
[2]; relative to 1 (as-APF) run on the same plate, from IC50, inactive = no significant activity at <25 μM
  % of activity: inactive
